Reference: patent publication EP4364731A1, “COMPOSITION FOR USE IN THE TREATMENT OF DISRUPTED NASAL MUCOSA AND EPITHELIAL BARRIER” (Laboratorios Cinfa, S.A., priority 2022, dated 2024)

Columns and labels:
Format in all cases: cell-based
[1] = system: Human Nasal Epithelial Cells (HNEpC); test: Re-epithelialization (scratch) assay; settings: 0.5% compound separately (FIG. 2)
Method: (§1) In vitro studies were performed to assess the proliferation and re-epithelialization activity of compositions containing hyaluronic acid and xylitol as individual components and in combination. Three independent trials were carried out with 4 replicates per experimental trial.
(§2) Solutions in basal culture medium of hyaluronic acid (HA, White powder,CAS number 9067-32-7, MW: 1000-1400 kDa, Givaudan France SAS xylitol (Xyl,. White crystalline powder, CAS number 87-99-0 Roquette) or combinations of hyaluronic acid and xylitol at different concentrations were tested.
Human Nasal Epithelial Cells (HNEpC) from a primary cell line isolated from normal human nasal mucosa were purchased form PromoCell (ref: C-12620). The cell line was maintained in supplemented culture medium according to the supplier guidelines and was routinely grown as a monolayer in tissue culture grade flasks. When cells exceeded 70% confluence (but less than 90%), they were sub-cultured on new culture flasks. […]
Cells were seeded in both sides of inserts attached on culture wells and were incubated in supplemented medium at 37 °C and 5% CO2. […] The area of the scratch was calculated using ImageJ software. The percentage of scratch closure (re-epithelialization percentage) was calculated relative to the negative control, a condition in which cells were not treated with any product. […]

[2] = system: Human Nasal Epithelial Cells (HNEpC); test: Proliferation assay (MTT); settings: Epithelial cell, 24 hours
Method: as §1, §2
Human Nasal Epithelial Cells (HNEpC) from a primary cell line isolated from normal human nasal mucosa were purchased form PromoCell (ref: C-12620). The cell line was maintained in supplemented culture medium according to the supplier guidelines and was routinely grown as a monolayer in tissue culture grade flasks. When cells exceeded 70% confluence (but less than 90%), they were sub-cultured on new culture flasks. All the cell cultures were maintained in standard cell culture conditions (37 °C, 5% CO2 and 95% humidity).
MTT, a yellow tetrazole, is reduced to purple formazan by cell metabolic activity. This reduction is proportional to the amount of living cells in the well and, therefore, to cell proliferation over time. Cells cultured in 96-well plates were treated with the test compositions for 24 hours (37 °C, 5% CO2). After 24 hours of incubation, cells were washed with PBS and stained with MTT solution and incubated at 37 °C for 2 hours. At the end of this incubation period, the staining medium was removed and 100 µL of DMSO/well were added to solubilize the colored precipitate. The absorbance was read at 540 nm in the spectrophotometer plate reader. The cell proliferation percentage was calculated relative to the negative control, a condition in which cells were not treated with any product. Cells with treatments and negative control were cultured with basal medium. As positive control, cells were cultured in supplemented medium. The % of cell proliferation was calculated by the following formula: • % proliferation = AbT/AbC x 100 • AbT = absorbance at 540 nm after 24 hours of treatment • AbC = absorbance at 540 nm of the negative control (24 hours of cells growing in basal medium)

in vitro = settings: human, nasal epithelial cells
Excerpt: Regarding hyaluronic acid, insolubility at concentrations above 0.5% w/v prevented the testing of higher concentrations. As for xylitol, a high in vitro cytotoxicity at concentrations above 0.5% w/v prevented the testing of higher concentrations.

- MCC (in vitro): > 5000 µg/mL
SMILES: OC[C@@H](O)[C@H](O)[C@@H](O)CO [Xyl, xylitol]
- scratch closure after 72 hours of exposure [1]: did not
- activation at 0.125 % ([2]; 0.125% compound alone, read-out: increase of cell proliferation in relation to negative control): 0%
- activation at 0.5 % ([2]; 0.5% compound alone, read-out: increase of cell proliferation in relation to negative control): 0%
- activity at 0.125 % strength ([2]; basal medium, relative to negative control (100%), compound concentration 0.125 %w/v): 99.9%
- activity at 0.5 % strength ([2]; basal medium, relative to negative control (100%), compound concentration 0.5 %w/v): 98.2%
